From publication PMC4414724 (Chemico-biological interactions, 2015)
Read-outs that look alike come from different tables or passages of the source.

Columns and labels:
[1] = biological target: rat liver alcohol dehydrogenase (Rattus norvegicus, UniProt P06757); experiment: Oxidation of alcohols by isolated rat liver alcohol dehydrogenase
[2] = biological target: horse liver ADH1E (Equus caballus, UniProt P00327); experiment: Reactions of horse liver ADH1E with 1,5-pentanediol and 5-hydroxypentanal; type: biochemical; conditions: for concentration formed in dismutation reaction: 5 mM 5-hydroxypentanal, 1 mM NAD+, 0.01 mg/mL ADH, at 12 h, GC
horse liver ADH1E, sequence (P00327 2-375 limits assumed): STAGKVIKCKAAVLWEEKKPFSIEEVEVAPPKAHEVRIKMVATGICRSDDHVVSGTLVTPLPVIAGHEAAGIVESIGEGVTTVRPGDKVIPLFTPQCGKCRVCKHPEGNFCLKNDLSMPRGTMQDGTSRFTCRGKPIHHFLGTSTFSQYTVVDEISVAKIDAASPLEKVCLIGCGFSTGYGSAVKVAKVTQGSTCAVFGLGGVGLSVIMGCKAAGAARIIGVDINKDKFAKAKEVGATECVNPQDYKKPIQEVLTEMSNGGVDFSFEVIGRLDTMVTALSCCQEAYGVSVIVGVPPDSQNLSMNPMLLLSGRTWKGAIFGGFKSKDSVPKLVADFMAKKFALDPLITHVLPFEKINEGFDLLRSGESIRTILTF

[3] = system: ethanol elimination; conditions: cited from earlier work
[4] = 83 mM potassium phosphate, 40 mM KCl, pH 7.3, 37 °C, 0.5 mM NAD+
[5] = from inhibition by 1 mmole/kg 4-methylpyrazole
[6] = primary alcohols and diols, doses of 5–20 mmole/kg
[7] = calculated from kinetic constants with Michaelis-Menten equation for 5 mM alcohol
[8] = rats fasted 24 h, dose mmole/kg: 2-propanol 17, 2-propanol-d7 15

rat liver alcohol dehydrogenase, sequence (P06757 2-376 limits assumed): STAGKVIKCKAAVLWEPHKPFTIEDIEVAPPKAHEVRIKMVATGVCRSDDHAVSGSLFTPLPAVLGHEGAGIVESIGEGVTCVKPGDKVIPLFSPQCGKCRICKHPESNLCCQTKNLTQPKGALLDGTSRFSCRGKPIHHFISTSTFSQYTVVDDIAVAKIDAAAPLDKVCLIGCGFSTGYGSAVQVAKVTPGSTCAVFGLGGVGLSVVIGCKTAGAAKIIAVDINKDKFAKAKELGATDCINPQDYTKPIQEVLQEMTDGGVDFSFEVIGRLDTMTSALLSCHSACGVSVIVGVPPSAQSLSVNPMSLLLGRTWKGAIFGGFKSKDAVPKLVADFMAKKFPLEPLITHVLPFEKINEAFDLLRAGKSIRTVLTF

## OCc1ccccc1 [Benzyl alcohol, benzyl alcohol]
[1]
  Ki: 27 mM
[1]; [4]
  V rel (Vmax relative to ethanol as substrate): 0.47 ± 0.03
[1]; pH 7.3, 37 °C, 0.5 mM NAD+
  Vrel/K: 13

## OCCCO [1,3-Propanediol, 1,3-propanediol]
Data for zero order elimination, rats without inhibitors
  in vivo rate of elimination: 2.7 ± 0.8 mmol/kg/h
[5]
  %ADH (estimated percentage of elimination due to ADH): 63%
Observed rate without inhibitors minus the rate with 1 mmole/kg 4-methylpyrazole
  Rate due to ADH: 1.7
[6]
  kinetics of elimination in rats (order): zero-order kinetics
[1]; [4]
  Km: 24 ± 2 mM
  V rel (Vmax relative to ethanol as substrate): 0.75 ± 0.04
[1]; [7]
  in vitro v rel: 0.13
[1]; pH 7.3, 37 °C, 0.5 mM NAD+
  Vrel/K: 0.031

## OC1CCCCC1 [Cyclohexanol, cyclohexanol]
[5]
  %ADH (estimated percentage of elimination due to ADH): 74%
male, rat, in vivo
  Rate due to ADH: 3.2
  in vivo rate of elimination: 4.3 ± 1.5 mmol/kg/h
male, rat, in vivo, ip
  10^4 k1 (first order, alcohol to ketone): 229 ± 70 min^−1
  10^4 k2 (first order, elimination of ketone): 50 ± 6 min^−1
  r: 0.75 ± 0.21 mL/g
[1]; [7]
  in vitro v rel: 0.90

## CC(C)O [2-Propanol-d7, 2-propanol-d7]
[1]; 83 mM potassium phosphate, 40 mM KCl, pH 7.3, 37 °C, 0.5 mM NAD+, listed as 2-propanol-d7
  Km: 83 ± 15 mM

## OCCCCCO [1,5-Pentanediol, 1,5-pentanediol]
[2]
  Vmax relative to the activity on ethanol: 1.1
  concentration formed in dismutation reaction: ~ 2 mM
[6]
  kinetics of elimination in rats (order): zero-order kinetics
[1]; [4]
  V rel (Vmax relative to ethanol as substrate): 3.6 ± 1.3
[1]; pH 7.3, 37 °C, 0.5 mM NAD+
  Vrel/K: 1.0

## [2H]C([2H])([2H])C([2H])(O)C([2H])([2H])[2H] [2-Propanol-d7, 2-propanol-d7]
rat, in vivo
  10^4 k1 (first order, alcohol to ketone): 18 ± 2 min^−1
  10^4 k2 (first order, elimination of ketone): 13 ± 2 min^−1
  k2 (zero order, elimination of ketone): 0.44 ± 0.06 mmol/kg/h
rat, in vivo, ip
  10^4 k1 (first order, alcohol to ketone): 25 ± 2 min^−1
  10^4 k2 (first order, elimination of ketone): 19 ± 4 min^−1
  k2 (zero order, elimination of ketone): 0.59 ± 0.08 mmol/kg/h
[8]
  r: 0.70 ± 0.03 mL/g
Secondary alcohols, doses of 5–10 mmole/kg
  kinetics of elimination in rats (order): first order kinetics
[1]; [4]
  V rel (Vmax relative to ethanol as substrate): 0.20 ± 0.02
[1]; [7]
  in vitro v rel: 0.011
[1]; pH 7.3, 37 °C, 0.5 mM NAD+
  Vrel/K: 0.0024

## O=C1CCCCO1 [δ-valerolactone]
[2]
  concentration formed in dismutation reaction: ~ 2 mM

## CC(C)C(N)=O [isobutyramide]
[3]
  in vivo Ki (uncompetitive): 1 mmol/kg

## OCCO [1,2-Ethanediol, 1,2-ethanediol]
rat, in vivo, ip
  r (fraction of body weight accessible to the alcohol): 0.72 ± 0.08 mL/g
[1]; pH 7.3
  V rel (Vmax relative to ethanol as substrate): 0.99 ± 0.25
  Vrel/K: 0.0013

## OCCCCO [1,4-Butanediol, 1,4-butanediol]
male, rat, in vivo
  Rate due to ADH: 5.8
  in vivo rate of elimination: 6.7 ± 0.1 mmol/kg/h
male, rat, in vivo, ip
  r (fraction of body weight accessible to the alcohol): 1.3 ± 0.2 mL/g
rat, in vivo
  %ADH (estimated percentage of elimination due to ADH): 86%
  kinetics of elimination in rats (order): zero-order kinetics
[1]
  in vitro v rel: 0.52
[1]; pH 7.3
  V rel (Vmax relative to ethanol as substrate): 1.5 ± 0.3
  Vrel/K: 0.16

## O=C1CCCCC1 [Cyclohexanone]
male, rat, in vivo, ip
  10^4 k1 (first order, alcohol to ketone): 176 ± 13 min^−1
  10^4 k2 (first order, elimination of ketone): 67 ± 3 min^−1
  r: 0.53 mL/g

## CC(C)O [2-Propanol, 2-propanol]
By 1 mmole/kg of 4-methylpyrazole
  inhibition of the rate of elimination: 55%
Fed rats, 10 mmole/kg isobutyramide (IBA), dose 10 mmole/kg
  k2 (zero order, elimination of ketone): 0.44 mmol/kg/h
[5]
  %ADH (estimated percentage of elimination due to ADH): 55%
rat, in vivo
  10^4 k1 (first order, alcohol to ketone): 42 ± 4 min^−1
  10^4 k2 (first order, elimination of ketone): 14.3 ± 0.6 min^−1
  Km: 58 ± 20 mM
  Vmax, Michaelis-Menten fit of elimination in vivo: 0.38 ± 0.10 mM/min
  r: 0.75 ± 0.01 mL/g
[8]
  k2 (zero order, elimination of ketone): 0.64 ± 0.02 mmol/kg/h
[1]; [4]
  V rel (Vmax relative to ethanol as substrate): 0.40 ± 0.02
[1]; 83 mM potassium phosphate, 40 mM KCl, pH 7.3, 37 °C, 0.5 mM NAD+, listed as 2-propanol
  Km: 36 ± 7 mM
[1]; [7]
  in vitro v rel: 0.049
[1]; pH 7.3, 37 °C, 0.5 mM NAD+
  Vrel/K: 0.011

## CC(C)CO [2-Methyl-1-propanol, 2-methyl-1-propanol]
[5]
  %ADH (estimated percentage of elimination due to ADH): 66%
rat, in vivo
  in vivo rate of elimination: 3.8 ± 0.5 mmol/kg/h
[1]; [4]
  Km: 0.19 ± 0.04 mM
  V rel (Vmax relative to ethanol as substrate): 0.80 ± 0.04
[1]; [7]
  in vitro v rel: 0.77
[1]; pH 7.3, 37 °C, 0.5 mM NAD+
  Vrel/K: 4.2
